These results are taken from patent publication US11160767B2, “4,4′-trans-dihydroxystilbene for use in treating cancer” (The George Washington University, a Congressionally …, priority 2017, dated 2021).

One experiment has as its system PANC-1. Kind of experiment: In vitro cytotoxicity (SRB assay), PANC-1. The conditions noted are these: Homo sapiens, 72 hours. It is filed as cell-based. How it is done:
(§1) Cell lines and cell culture. HCT116, U205, PANC-1, MDA-231 cell lines were purchased from the American Type Culture Collection (Rockville, Md., US). Cells were cultured in the DMEM medium (Lonza, Basel, Switzerland) containing 10% fetal bovine serum (Gibco, Grand Island, N.Y., US), 100 Units/ml penicillin, 100 Units/mL streptomycin, […] L-glutamine (Gibco, Grand Island, N.Y., US) at 37° C. in a humidified atmosphere with 5% CO2.
(§2) In vitro cytotoxicity assays. […] SRB assay (Vichai and Kirtikara, 2006) was performed and the absorbance at 510 nm was read with a plate reader. The proliferation rate was calculated according to the Manufacturer's instruction. The IC50 value for each compound was determined from dose-effect relationship using the CompuSyn software (version 1.0.1; CompuSyn, Inc, Paramus, N.J.) (Chou, 2006). Cell proliferating doubling time was monitored over a period of 72 hours.
In general terms: Sulforhodamine B stains cellular protein and so reports cell mass.

The subject of another experiment is MDA-231/GFP. Kind of experiment: In vitro cytotoxicity (SRB assay), MDA-231/GFP. It is filed as cell-based. The following applies: Homo sapiens, MDA-MB-231, 72 hours. As for the experimental part: as §1, §2
Experiment [1] relates to HCT116 cells, U2OS cells, MDA-231/GFP cells, and PANC-1 cells. Kind of experiment: Cytotoxicity across the four cancer cell lines (SAR summary). The following applies: range over four cell lines. It is filed as cell-based. As for the experimental part: In vitro cytotoxicity assays. Cells growing in the Log phase were treated with various compounds at different concentrations (generally 0.137 to 100 μM) for 72 hours at 37° C. SRB assay (Vichai and Kirtikara, 2006) was performed and the absorbance at 510 nm was read with a plate reader. The proliferation rate was calculated according to the Manufacturer's instruction. The IC50 value for each compound was determined from dose-effect relationship using the CompuSyn software (version 1.0.1; CompuSyn, Inc, Paramus, N.J.) (Chou, 2006). Cell proliferating doubling time was monitored over a period of 72 hours.
Based on identification of resveratrol as a lead compound in the drug screening assays, the anti-cancer activity of synthetic resveratrol analogs (FIG. 2) was next investigated and compared to resveratrol using HCT116 cells, U2OS cells, MDA-231/GFP cells, and PANC-1 cells.
The structure activity relationship (SAR) of the derivatives of resveratrol were considered.

In a further experiment the test system is HCT116. Kind of experiment: In vitro cytotoxicity (SRB assay), HCT116. It is filed as cell-based. The following applies: Homo sapiens, HCT-116, 72 hours. As for the experimental part:
as §1, §2

For a further experiment, the system named is U2OS. Briefly: In vitro cytotoxicity (SRB assay), U2OS. It is filed as cell-based. The conditions noted are these: Homo sapiens, 72 hours. How it is done: as §1, §2
In experiment [2] the test system is HCT116 cells. Briefly: Cell-cycle assay. It is filed as cell-based, human. The conditions noted are these: 10 μM. How it is done:
A cell-cycle assay was conducted to study whether DHS would affect cell-cycle progression.

Experiment [3] has as its system HCT116 cells. Briefly: dNTP amount in treated cells. It is filed as cell-based, human. The source says:
The effect of DHS on dNTP synthesis was investigated by measuring the amount of dNTPs in DHS-treated HCT116 cells.

In another experiment the test system is And-1. Briefly: High-throughput screening, HEK-293T-And-1-Luc cells. It is filed as cell-based. The following applies: 48 hours. As for the experimental part:
High-throughput drug screening was performed using a HEK-293T-And-1-Luc cell line expressing Luciferase fused to And-1 (FIG. 1A). The level of cellular Luciferase activity was reflective of the level of And-1 protein. […] In the drug screening assays, cells were treated with testing drugs for 48 hours.

A further experiment concerns HCT116 xenograft tumor. Kind of experiment: HCT116 xenograft tumor model. It is filed as in vivo, nude mice. The conditions noted are these: Day 38; DHS 50 mg/kg i.p. 14 consecutive days; cisplatin 8 mg/kg i.p.
Experiment [4] relates to HCT116 cells. Briefly: DNA fiber assay. The following applies: added 2 hours prior to labeling. It is filed as cell-based, human. As for the experimental part:
Thus, the effect of DHS on DNA replication and cell cycle progression was investigated. Replication fork speeds were examined by DNA fiber assay (FIG. 7A). Briefly, DHS, hydroxyurea (Hu), or Aphidicolin (Aph) was added to HCT116 cells 2 hours prior to labeling of DNA with iododeoxyuridine (IdU) and/or chlorodeoxyuridine (CldU).

The next experiment has as its target T1, RRM2 (Homo sapiens, UniProt P31350).
T1 construct: endogenous in cells; host or cells: HCT116
T1 sequence (P31350 1-389): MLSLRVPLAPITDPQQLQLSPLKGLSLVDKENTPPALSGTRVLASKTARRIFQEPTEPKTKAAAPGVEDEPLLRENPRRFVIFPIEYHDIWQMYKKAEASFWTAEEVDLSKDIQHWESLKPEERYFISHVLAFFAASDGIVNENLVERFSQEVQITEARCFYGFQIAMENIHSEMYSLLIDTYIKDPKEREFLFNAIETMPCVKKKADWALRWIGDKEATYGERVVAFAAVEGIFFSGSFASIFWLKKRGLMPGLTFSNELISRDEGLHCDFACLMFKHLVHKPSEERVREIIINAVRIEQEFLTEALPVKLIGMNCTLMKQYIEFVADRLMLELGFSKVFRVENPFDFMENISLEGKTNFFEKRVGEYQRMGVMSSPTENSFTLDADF
Kind of experiment: Thermal shift assay in HCT116 cells, RRM2. It is filed as cell-based. How it is done:
(§3) To investigate binding of DHS to RRM1 and RRM2, a thermal shift assay was performed in HCT116 cells treated with DMSO (vehicle), resveratrol, DHS, gemcitabine, or hydroxyurea (Hu). Gemcitabine is known to bind RRM1 (Plunkett et al., 1995 and Chen et al., 2011), and Hu has been reported to bind RRM2 (Thelander et al., 1985). […] DHS stabilized RRM2 protein in a dose responsive manner (5 to 20 μM DHS; FIG. 11A). To rule out nonspecific effects of DHS on RRM2, an in vitro thermal shift assay was conducted. Purified RRM1 and RRM2 were mixed and then incubated with DHS or Hu for 4 hours before performing the assay.

Another experiment addresses T2, RRM1 (Homo sapiens, UniProt P23921).
T2 construct: endogenous in cells; host or cells: HCT116
Kind of experiment: Thermal shift assay in HCT116 cells, RRM1. It is filed as cell-based. As for the experimental part: as §3

Each structure is given as a SMILES string.

T2 sequence (P23921 whole entry): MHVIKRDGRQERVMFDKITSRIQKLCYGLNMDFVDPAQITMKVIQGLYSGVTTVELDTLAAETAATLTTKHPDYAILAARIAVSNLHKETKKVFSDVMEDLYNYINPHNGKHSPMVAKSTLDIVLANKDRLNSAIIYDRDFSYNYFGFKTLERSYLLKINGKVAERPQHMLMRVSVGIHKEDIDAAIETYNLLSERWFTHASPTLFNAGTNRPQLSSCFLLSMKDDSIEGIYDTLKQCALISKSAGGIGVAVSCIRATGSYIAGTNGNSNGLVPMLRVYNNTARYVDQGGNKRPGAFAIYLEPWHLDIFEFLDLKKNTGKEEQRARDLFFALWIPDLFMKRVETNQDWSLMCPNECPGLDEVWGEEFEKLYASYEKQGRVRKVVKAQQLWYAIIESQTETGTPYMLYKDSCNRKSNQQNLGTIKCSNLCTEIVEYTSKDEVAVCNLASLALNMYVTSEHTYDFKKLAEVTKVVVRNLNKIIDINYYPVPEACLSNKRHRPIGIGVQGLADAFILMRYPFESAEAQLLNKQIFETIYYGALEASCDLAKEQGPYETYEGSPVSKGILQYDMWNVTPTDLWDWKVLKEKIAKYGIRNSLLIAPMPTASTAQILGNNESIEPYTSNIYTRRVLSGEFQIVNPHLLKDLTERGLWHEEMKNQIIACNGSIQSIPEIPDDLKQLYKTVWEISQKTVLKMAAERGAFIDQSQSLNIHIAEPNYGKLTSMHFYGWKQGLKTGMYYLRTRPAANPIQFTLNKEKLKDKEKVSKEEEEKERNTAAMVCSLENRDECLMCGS
Experimental for HCT116 xenograft tumor: Xenograft mouse models. […] In xenograft studies, HCT116 (3×10^6 cells) and IGROV3/CP2 (5×10^6 cells) suspended in 100 μl of phosphate buffered saline (PBS, pH 7.4) were injected subcutaneously into the lower flank of the mice. Testing compounds were dissolved in DMSO/Tween 80/saline (10:10:80; v/v/v) buffer and were used to treat animals through intraperitoneal (i.p.) injection. […] The body weight of animals was measured throughout the study. Tumor diameters were measured with digital calipers, and the tumor volume in mm^3 was calculated by the formula: Volume=(width)^2×length/2.
HCT116 cells (5×10^6) were injected subcutaneously in nude mice and grown to approximately 100 mm^3 in volume. […] To study the preclinical toxicity of DHS, samples of hearts, livers, spleens, lung, and kidneys were collected on Day 38 and sections were stained for histological examination.

The term IC50 denotes the point on the concentration scale where inhibition reaches its midpoint. Low readings indicate higher potency, high ones lower potency. Turning to `Oc1ccc(/C=C/c2ccccc2)cc1O` [#4, (E)-4-styrylbenzene-1,2-diol], the IC50 in the experiment on PANC-1 is 57.1 ± 44.7 µM; in the experiment with MDA-231/GFP it was 13.7 ± 2.98 µM; in experiment [1] it was 13.7 to 57.1 µM; in the experiment on HCT116 it was 50.2 ± 9.72 µM; with U2OS, 33.6 ± 28 µM.

In the case of `Oc1ccc(/C=C/C=C/c2ccccc2)cc1O` [#5, 4-((1E,3E)-4-phenylbuta-1,3-dien-1-yl)benzene-1,2-diol], the IC50 stood at 18.4 ± 8.87 µM in the experiment on PANC-1, 5.47 ± 4.02 µM with MDA-231/GFP, 9.5 ± 3.64 µM with HCT116 and 4.66 ± 2.67 µM in the experiment on U2OS.

For `Oc1ccc(/C=C/C=C/C=C/c2ccc(O)cc2)cc1` [#2, 4,4′-((1E,3E,5E)-hexa-1,3,5-triene-1,6-dyl)diphenol], the IC50 in the experiment on PANC-1 was determined as 123 ± 93.4 µM; in the experiment with MDA-231/GFP, 57.9 ± 15.4 µM; in the experiment on HCT116, 11.7 ± 6.46 µM; in the experiment with U2OS it was 0.37 ± 0.28 µM.

In the case of `Oc1ccc(/C=C/c2ccccc2)cc1` [#3, (E)-4-styrylphenol], the IC50 in the experiment with PANC-1 was 109 ± 63.7 µM; in the experiment with MDA-231/GFP it was 45.1 ± 13.9 µM; in experiment [1], 23.6 to 109 µM; with HCT116 it was 32.2 ± 5.88 µM; in the experiment on U2OS it was 23.6 ± 3.83 µM.

For the molecule `Oc1ccc(/C=C/c2cc(O)cc(O)c2)cc1` [Resveratrol, 3,5,4′-trihydroxy-trans-stilbene, reference compound], the “Effect on cell-cycle progression” value with HCT116 cells [2] is recorded as “did not change the cell-cycle population”. Also, the IC50 with PANC-1 was 82 ± 24.4 µM; in the experiment with MDA-231/GFP it was 42.4 ± 4.9 µM; in experiment [1] it was 24.5 to 82 µM; with HCT116, 24.5 ± 3.32 µM; in the experiment on U2OS it was 30.2 ± 4.22 µM. In addition, the dNTP synthesis entry in the experiment with HCT116 cells [3] was “did not”. For the same molecule, the “And-1 protein level (luciferase activity)” value with And-1 is recorded as “causing down-regulation of And-1 protein”.

Consider `N.N.[Cl][Pt][Cl]` [Cisplatin, reference compound], for which the “Reduction in tumor volume as compared with the vehicle control group” value in the experiment with HCT116 xenograft tumor is around 50%.

On to `C[C@@]1(CO)[C@H](O)CC[C@@]2(C)[C@H]1CC[C@H]1C[C@@H]3C[C@@]12CC[C@]3(O)CO` [Aph, Aphidicolin, reference compound], for which the DNA replication stalling entry in the experiment with HCT116 cells [4] is “caused DNA replication stalling”.

In the case of `NC(=O)NO` [Hydroxyurea, reference compound], in the experiment with HCT116 cells [4], the DNA replication stalling result is “caused DNA replication stalling”. Further, the IC50 came to 2400 ± 485 µM with PANC-1, 704 µM in the experiment with MDA-231/GFP, 306 ± 61.1 µM in the experiment with HCT116 and 262 ± 181 µM with U2OS. The dNTP synthesis entry with HCT116 cells [3] is “did not”. In addition, the “RRM2 levels in thermal shift assay (binding)” value at RRM2 is “robust levels of RRM2”.

As to `Nc1ccn([C@@H]2O[C@H](CO)[C@@H](O)C2(F)F)c(=O)n1` [Gemcitabine, reference compound], the IC50 is 7.43 ± 5.24 µM with PANC-1, 0.03 ± 0.04 µM in the experiment with MDA-231/GFP, 0.046 ± 0.041 µM with HCT116 and 0.51 ± 0.17 µM with U2OS. In addition, on RRM1, the “RRM1 levels in thermal shift assay (binding)” value is “robust levels of RRM1”.

On to `Oc1ccc(/C=C/C=C/c2ccc(O)cc2)cc1` [#1, 4,4′-((1E,3E)-buta-1,3-diene-1,4-diyl)diphenol], for which the IC50 with PANC-1 stood at 308 ± 86.3 µM; with MDA-231/GFP, 70.7 ± 16.7 µM; in the experiment on HCT116, 6.48 ± 3.98 µM; with U2OS it was 1.1 ± 1.05 µM.
